Here are results for six molecules from patent publication US20260256746A1, “TRIAZOLES FOR USE IN THE TREATMENT OF OCULAR DISEASES” (MIRAMOON PHARMA, S.L., priority 2022, published 2026).

The subject of series [1] is rd10 mice. Kind of series: In vivo efficacy in rd10 mouse model of retinitis pigmentosa, electroretinographic (ERG) analysis. The settings on record: for retinal function measured by ERG activity: 3 μL of 20 mM solution per eye daily for 11 days, scotopic conditions, vs untreated rd10. Here is the method:
rd10 mice were treated by ocular instillation with phosphate buffered saline (PBS) containing the compounds of the invention (1, 35, 50, 56 and 70) for 11 days (from P14 to P24). Animals were dark adapted for 8 hours at P25 and full-field flash electroretinographic (ERG) responses were recorded with the retina illuminated with a LED-driven Ganzfeld dome. A series of light flashes of increasing intensity, from 0.001 to 10 cd s/m^2, were averaged both in scotopic (dark-adapted) and photopic (light adapted) conditions. Photopic cone responses were recorded following 5 min of light adaptation with a background white light (30 cd/m^2). Light intensity was controlled for each animal group (Mavo-Monitor USB, Gossen, Germany). The stimulation protocols were designed according to the International Society for Clinical Electrophysiology of Vision. Briefly, mice were anesthetized with intraperitoneal administration of a saline solution containing ketamine (95 mg/kg) and xylazine (5 mg/kg) and kept on a 37° C. heating pad. Ocular instillation of 1% tropicamide was applied to induce mydriasis. ERG responses were recorded from both eyes in response to a Ganzfeld stimulator under light flashes. A total of 4 to 64 consecutive stimuli were averaged, with an interval between light flashes in scotopic conditions of 10 s for dim flashes and of up to 60 s for the highest intensity for every light intensity used. For photopic conditions, a one-second interval between light flashes was used. ERG signals were amplified, and band filtered between 0.3 and 1000 Hz (CP511 AC amplifier; Grass Instruments, Quincy, MA, USA). Electrical signals were digitized at 20 kHz with a power laboratory data acquisition board (AD Instruments, Chalgrove, UK).
ERGs were performed using an electrode fixed to a corneal lens (Burian-Allen electrode; Hansen Ophthalmic Development Laboratory, Coralville, IA, USA) and a reference electrode fixed to the mouth, with a ground electrode placed in the tail. Rod-mediated responses were recorded from light flashes ranging from 0.001 to 10 cd s/m^2 with dark-adapted mice. Mixed rod- and cone-mediated signals were recorded in response to −1.5 to 1.5 log cd s/m^2 light flashes. Oscillatory potential (OP) was isolated using 11 cd s/m^2 white flashes, with a recording frequency ranging between 100 and 10,000 Hz. For recording of cone-mediated responses, we applied light flashes ranging from 0.5 to 2 log cd s/m^2 on a rod-saturating background of 30 cd s/m^2. Amplitudes of the a-wave and b-wave were averaged, using data provided by a researcher with no information regarding the experimental condition of mice.
Data correspond to a pool of 3 independent experiments (N=3) with 4-5 mice per experimental group. Data are expressed as mean+/−standard deviation. Unpaired t-test was used for statistical analysis.

Series [2] can be described thus: Retinal biodistribution after topical ocular administration, HPLC-MS of retina (mouse). Format: in vivo. The settings on record: formulated with 0.2% hyaluronic acid vs PBS solution; 4 h after single ocular instillation. As to the method:
Ocular instillation with PBS solutions containing 0.2% hyaluronic acid (HA) and the selected compounds of the invention were administered: 17 μg/eye (3 μL of 20 mM solution per eye) in mouse; 65 μg/eye (10 μL of 17 mM solution per eye) in rat; and 559 μg/eye (50 μL of 40 mM solution per eye) in swine. Animals were sacrificed after 4 hours (mouse, rabbit and swine) or after 24 hours (rats) of treatment to determinate the availability of the compounds in the retina. Retinas were mechanically homogenized in physiological serum ([…]) and processed to analyze the compounds availability by HPLC-MS.

Series [3] concerns rd10 mice. Kind of series: Morphometric analysis of the retina (immunohistochemistry, rhodopsin and cone arrestin). To be noted: 3 μL of 20 mM solution per eye for 11 days; vs untreated rd10. It counts as in vivo, mouse. Here is the method:
A detailed morphometric analysis, based on immunohistochemistry, was performed. For this purpose, rd10 mice were treated by ocular instillation with phosphate buffered saline (PBS) containing compound 35 (3 μL of 20 mM solution per eye) for 11 days (from P14 to P24). At P25 eyeballs were enucleated and fixed with 4% paraformaldehyde (in PBS) for 3 hours. The anterior segment and lens were dissected, and the eyecups were incubated in 30% sucrose (in PBS) for 12 h at 4° C. Cryosection with DAPI. ocular cryosections were stained with DAPI, rhodopsin and cone arrestin for immunohistochemical analysis. Briefly, cryosections were incubated with antibodies against rhodopsin (Millipore, MABN15) and cone arrestin (Millipore, AB15282) both at 1:400 for 8 h at 4° C. and buffered with secondary antibodies both at 1:400 and DAPI (Sigma, D89542) 1:1000 for 1 hour. The sections were analyzed by fluorescent microscopy.

Series [4] concerns rd10 mice. In words: Optokinetic response based on a modified Morris water maze. Format: in vivo, mouse. The settings on record: daily ocular instillation for 16 days; spatial frequencies 0.01; 0.02; 0.17 and 0.35 cycles/degree. As to the method: rd10 mice were treated by ocular instillation with phosphate buffered saline (PBS) containing the compound 35 of the invention for 16 days (from P14 to P29). To study optokinetic (OKT) response, we conducted an OKT test in combination with a modified Morris water maze using 9 rd10 mice at p30: 5 treated with compound 35 and 4 untreated. Animals were adapted to the experimental conditions for 1 week before behavioral testing. Mice were trained in a square pool (70×40 cm) filled with water (24-26-C), with all sides opaque, except the frontal side, where a screen was placed. The screen was divided vertically into 2 equal parts. A pattern of moving vertical bars was presented on one half of the screen, with the other half turned off. The direction of the bars was random: 50% of the time moving to the right and 50% of the time moving to the left. The bar velocity was constant throughout the process. Mice were trained for one week to associate the area of the screen with moving bars with the presence of a submerged platform, not visible to the mice under the dim light conditions, that was placed right next to that area of the screen. The platform allowed the mice to escape from the water. […] Contrast sensitivity values were measured, and the results of treated and untreated mice were compared.

A further series concerns 661W cells. In words: Prevention of 9-cis-Retinal and light-induced phototoxicity, impedance recording. Format: cell-based. The settings on record: Mus musculus, light or radiation study, 20 μM 9-cis-Retinal, 30,000 luxes white light, impedance converted to percentage of cytolysis, read-out: EC50 of protection against phototoxicity. Here is the method: 661W cells were seeded onto 96-wells MEA impedance plates (50,000 cells/well) and grown until confluence in the Maestro Edge equipment (Axion Biosystems) at 37° C. and 5% CO2. When impedance reaches a plateau, phototoxicity is induced by addition of 20 μm 9-cis retinal and 30,000 luxes of white light. Increasing concentrations of compound 35 were added (A). Impedance was recorded every minute for 24 hours and was converted to percentage of cytolysis (B). 661 W cells were seeded in a 96-wells impedance plate (50,000 cells/well), previously coated with ECM 1:100, and grown O/N at 37° C. and 5% CO2 in DMEM/F-12 (Thermo Fisher, 11320033) supplemented with 40 μL/L hydrocortisone 21-hemisuccinate (Sigma, H-2270), 40 μL/L progesterone (Sigma, P-8783), 0.032 g/L putrescine (Sigma, P-7505), 40 μL/L β-mercaptoethanol (Sigma, M-6250), antibiotic-antimycotic solution (Sigma, A5955) and 10% fetal bovine serum (FBS). After 8 h, the medium was replaced by DMEM/F-12 without FBS or complements to remove cellular debris. When cells arrived at a plateau in the impedance recording (4-8 hours after the medium change, depending on the culture plate) compound 35 was added and two hours later the 9-cis-Retinal (Cf=20 μM) was added. The cells were placed in the Maestro Z and exposed to 30,000 white light luxes. to register the impedance.

A short description of series [5]: Retinal biodistribution by in vivo autoradiography after ocular instillation. Set-up: species or system Sprague-Dawley rats. The settings on record: 5 μL/eye of 20 mM PBS solution, autoradiography at 1, 8 and 24 h. As to the method: In order to test the bioavailability of the compounds 1, 24, 35, 53, 66 and 67 to the retina, the following species we used: mouse, rat, rabbit and swine. Animals were treated under anesthesia. In vivo autoradiography imaging was conducted at 1, 8 and 24 hours following the ocular instillation of compound [^3H]-35 (5 μL/eye) as a phosphate buffered saline (PBS) 20 mM solution under carrier added conditions (ca. 7 mBq/eye) on Sprague-Dawley rats (n=4 for each time point). After the enucleation, the eye was incubated firstly in an aqueous solution at 4% of paraformaldehyde for 4 hours, then in aqueous solution at 10% and 20% of sucrose for 2 hours each and finally in aqueous solution at 30% of sucrose for one week. All the incubations were at 4° C. The samples were fixed in OCT (optimal cutting temperature polymer) and fine 20-μm sections of eye were cut using a Leyca cryostat (Leica CM3050 S, Germany) at −24° C. The slices (20 μm thick) were disposed on glass slides (Superfrost Plus, Labolan). Autoradiography was performed in Beta Imager 2000 system (Biospace Lab, France), for 1 h on four consecutive slices of the central part of the organ where all the parts are visible (FIG. 1 A).

As to `COc1ccc(OCc2cn(CCN(C)C)nn2)cc1` [Compound 1, 1-[2-(N,N-dimethylamino)ethyl]-4-[(4-methoxyphenoxy)methyl]-1H-1,2,3-triazole], in the series on rd10 mice [1], the “retinal function measured by ERG activity” value (“retinal function measured” for short) is reported as “increased retinal function”.

By EC50 is commonly meant the concentration needed to bring the measured effect to its halfway point. As to `COc1ccc(SCc2cn(CCN(C)C)nn2)cc1` [Compound 35, 1-[2-(N,N-dimethylamino)ethyl]-4-[(4-methoxyphenyl)thiomethyl]-1H-1,2,3-triazole], in series [2], the “delivery percentage to the mouse retina (percentage of administered dose per gram of retina)” value is “higher delivery percentage”. Besides, the “cone function: recovery score vs. WT” value in the series with rd10 mice [1] (0.2 cd s/m^2 light intensity) turned out to be 78%. The “cone function: increase of ERG amplitude” value in the series on rd10 mice [1] (0.2 cd s/m^2 light intensity, vs rd10 control group) was determined as 66%. In addition, the “retinal function measured” value in the series on rd10 mice [1] was “increased retinal function”. In addition, the “preservation of photoreceptors (number of rods and cones per square mm, rod outer and inner segment)” value in the series with rd10 mice [3] is recorded as “significant preservation of photoreceptors”. In the series on rd10 mice [4], the “contrast sensitivity (visual acuity), treated vs untreated” value is “greatest differences were observed in the outlier values of spatial frequency”. For the same molecule, the EC50 in the series with 661W cells turned out to be 30.5 nM.

As to `COc1ccc(SCc2cn(CCCNC(=N)NC(=N)N)nn2)cc1` [Compound 50, 1-[3-(biguanidinyl)propyl]-4-[(4-methoxyphenyl)thiomethyl]-1H-1,2,3-triazole], the “retinal function measured” value with rd10 mice [1] is reported as “increased retinal function”.

Turning to `[3H]c1c(CSc2ccc(OC)cc2)nnn1CCN(C)C` [Compound 52, 1-[2-(N,N-dimethylamino)ethyl]-5-trithium-4-[(4-methoxyphenyl)thiomethyl]-1H-1,2,3-triazole], in series [5], the “time after administration up to which compound was detected in rat retina” value was “up to 24 h” and the “time of peak concentration in rat retina” value is given as “around 8 h”.

As for `[O-][S+](Cc1cn(CCN2CCCCC2)nn1)c1cccc(C(F)(F)F)c1` (stereo not shown) [Compound 56, 1-[2-(piperidin-1-yl)ethyl]-4-[(3-trifluoromethylphenyl)sulfinylmethyl]-1H-1,2,3-triazole], the “retinal function measured” value in the series on rd10 mice [1] is on record as “increased retinal function”.

Take `CC(C)c1ccc(S(=O)(=O)Cc2cn(CCN3CCOCC3)nn2)cc1` [Compound 70, 4-[(4-isopropylphenyl)sulfonylmethyl]-1-[2-(4-morpholinyl)ethyl]-1H,1,2,3-triazole]: in the series on rd10 mice [1], the “retinal function measured” value is reported as “increased retinal function”.
